According to PMC5942779, “Identification of a peptide inhibitor for the histone methyltransferase WHSC1” (PLoS ONE, 2018):
Square brackets hold non-standard residues; d marks the D form. Peptide text beside a SMILES is read from it. Nle = CCCC[C@H](N)C(=O)O

Legend:
[1] = target: T1, WHSC1L1 1054–1285 (Homo sapiens, UniProt Q9BZ95); experiment: WHSC1L1 1054–1285 radiometric biochemical assay; conditions: 40 nM enzyme, 6 μM total SAM, 0.8 μM peptide, 30 min pre-incubation, three independent replicates
T1 construct: A WHSC1L1 construct containing amino acids 1054–1285; His-TEV (N, cleaved yes); made in house; host or cells: E. coli
T1 sequence (Q9BZ95 1054-1285): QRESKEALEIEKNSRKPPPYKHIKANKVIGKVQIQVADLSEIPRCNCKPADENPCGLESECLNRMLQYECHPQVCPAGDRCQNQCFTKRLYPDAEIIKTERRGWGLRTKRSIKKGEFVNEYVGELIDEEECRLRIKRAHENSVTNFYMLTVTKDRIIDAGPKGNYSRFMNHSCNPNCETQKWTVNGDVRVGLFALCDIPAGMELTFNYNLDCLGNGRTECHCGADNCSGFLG
Description: (§1) An optimized 1× assay buffer containing 20 mM Tris-HCl (pH 8.0), 1 mM DTT, 0.005% Tween-20, and 0.01% bovine skin gelatin was utilized. […] The reaction was quenched after 120 minutes by adding excess (1 mM final concentration) unlabeled SAM. Quenched reactions were transferred onto streptavidin coated Flashplates (PerkinElmer), incubated for 2 hours, washed 1x with 0.1% Tween 20, and read on a Topcount instrument (PerkinElmer).
(§2) The reaction was initiated by adding 10 μL substrate mix containing peptide and SAM. Concentration–response curves in units of percent inhibition were plotted as a function of inhibitor concentration and fitted in GraphPad Prism to determine the IC50 values using a four-parameter logistic equation.

[2] = target: T2, WHSC1 941–1240 (Homo sapiens, UniProt O96028); experiment: WHSC1 941–1240 radiometric biochemical assay (3H methyl transfer from SAM to biotinylated H4 peptide); conditions: for IC50: radiometric, 10 nM enzyme, 1 μM total SAM, 0.5 μM H4 peptide, 30 min pre-incubation, 120 min, 25°C, pH 8.0, three independent replicates
T2 construct: GST-tagged WHSC1 941–1240 (#51026); GST; purchased BPS Bioscience 51026
T2 sequence (O96028 941-1240): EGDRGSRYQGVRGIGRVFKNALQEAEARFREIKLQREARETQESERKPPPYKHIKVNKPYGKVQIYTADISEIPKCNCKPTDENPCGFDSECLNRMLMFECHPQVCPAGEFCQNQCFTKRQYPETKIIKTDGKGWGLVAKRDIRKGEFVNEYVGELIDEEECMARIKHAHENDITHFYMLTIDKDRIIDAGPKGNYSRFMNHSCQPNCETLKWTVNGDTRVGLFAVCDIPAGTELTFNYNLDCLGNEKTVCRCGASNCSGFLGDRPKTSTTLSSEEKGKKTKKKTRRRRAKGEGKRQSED
Description: as §1, §2

[3] = target: SMYD2 (Homo sapiens, UniProt Q9NRG4); experiment: HMT panel biochemical assay, SMYD2; conditions: HMT selectivity panel
[4] = target: SETDB1 (Homo sapiens, UniProt Q15047); experiment: HMT panel biochemical assay, SETDB1; conditions: HMT selectivity panel
[5] = target: EZH1 (Homo sapiens, UniProt Q92800); experiment: HMT panel biochemical assay, EZH1; conditions: HMT selectivity panel
[6] = target: EZH2 (Homo sapiens, UniProt Q15910); experiment: HMT panel biochemical assay, EZH2; conditions: HMT selectivity panel
[7] = target: T3, Avi-tagged WHSC1 941–1240 (Homo sapiens, UniProt O96028); experiment: SPR binding assay, Avi-tagged WHSC1 941–1240
T3 construct: purchased BPS Bioscience 111207
T3 sequence (O96028 941-1240 limits assumed): T2 sequence (O96028 941-1240)
Description: The SPR binding assay for Avi-tagged WHSC1 941–1240 was performed at 15°C using the Biacore T200 system (GE Healthcare, Marlborough, MA). The running buffer contained 25 mM Tris-HCl pH 8.0, 150 mM NaCl, 5 mM DTT, 0.05% Tween-20, 10 μM ZnCl2, 50 μM SAM, and 2% DMSO. Biotinylated WHSC1 was immobilized on a streptavidin-coated SA chip up to 3700 RU (response units). The reference cell was blocked with PEG-biotin. Peptide inhibitor was injected at a flow rate of 50 μL/min with a 3-fold, 5-point dilution series ending at a 20 μM top concentration. Association and dissociation times were 240 and 2400 seconds, respectively. Double-referenced data were analyzed globally using a 1:1 binding model in BIAevaluation software.
WHSC1 was immobilized on a streptavidin-coated chip and peptide inhibitor was co-injected with SAM utilizing a 3-fold, 5-point dilution series ending at a 20 μM top concentration.
WHSC1 was immobilized on a streptavidin-coated chip and peptide inhibitor was either injected in the absence of cofactor (left panel), co-injected with SAH (middle panel), or co-injected with SFG (right panel) utilizing a 2-fold, 10-point dilution series ending at a 100 μM top concentration.

[8] = target: T4, G9a (Homo sapiens, UniProt Q96KQ7); experiment: HMT panel biochemical assay, G9a; conditions: HMT selectivity panel
T4 sequence (Q96KQ7 1-1210): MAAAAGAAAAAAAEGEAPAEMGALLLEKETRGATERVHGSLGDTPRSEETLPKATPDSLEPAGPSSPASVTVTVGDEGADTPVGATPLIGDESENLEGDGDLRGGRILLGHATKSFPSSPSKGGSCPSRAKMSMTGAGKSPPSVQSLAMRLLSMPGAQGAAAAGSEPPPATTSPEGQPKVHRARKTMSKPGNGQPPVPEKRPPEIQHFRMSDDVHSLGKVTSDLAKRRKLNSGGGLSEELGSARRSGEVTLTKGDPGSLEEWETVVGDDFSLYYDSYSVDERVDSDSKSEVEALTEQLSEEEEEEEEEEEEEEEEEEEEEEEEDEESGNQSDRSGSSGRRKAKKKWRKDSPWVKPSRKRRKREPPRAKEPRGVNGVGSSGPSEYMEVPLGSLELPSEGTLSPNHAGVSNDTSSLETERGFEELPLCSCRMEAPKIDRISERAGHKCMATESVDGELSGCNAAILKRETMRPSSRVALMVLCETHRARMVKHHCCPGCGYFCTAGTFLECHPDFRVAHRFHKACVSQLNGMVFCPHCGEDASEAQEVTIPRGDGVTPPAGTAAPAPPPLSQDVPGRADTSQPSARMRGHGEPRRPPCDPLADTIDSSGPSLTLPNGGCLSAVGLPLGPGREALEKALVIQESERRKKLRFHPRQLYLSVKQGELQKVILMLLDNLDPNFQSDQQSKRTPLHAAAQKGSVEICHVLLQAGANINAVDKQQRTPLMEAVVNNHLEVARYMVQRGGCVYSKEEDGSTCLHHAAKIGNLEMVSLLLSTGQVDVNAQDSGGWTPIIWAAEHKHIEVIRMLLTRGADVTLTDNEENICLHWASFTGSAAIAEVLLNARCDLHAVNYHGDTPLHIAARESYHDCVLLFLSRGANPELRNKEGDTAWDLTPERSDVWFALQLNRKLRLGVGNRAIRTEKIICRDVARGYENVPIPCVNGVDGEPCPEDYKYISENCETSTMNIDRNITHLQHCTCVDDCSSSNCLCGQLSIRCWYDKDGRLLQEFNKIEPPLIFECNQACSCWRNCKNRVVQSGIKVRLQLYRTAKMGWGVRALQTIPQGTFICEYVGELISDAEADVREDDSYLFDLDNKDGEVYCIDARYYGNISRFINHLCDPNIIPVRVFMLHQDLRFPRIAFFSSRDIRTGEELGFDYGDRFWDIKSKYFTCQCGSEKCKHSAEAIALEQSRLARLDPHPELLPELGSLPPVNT

[9] = target: PRMT6 (Homo sapiens, UniProt Q96LA8); experiment: HMT panel biochemical assay, PRMT6; conditions: HMT selectivity panel
[10] = ratio of WHSC1 941–1240 biochemical IC50 values

Sequence of PRMT6 (Q96LA8 whole entry, species assumed): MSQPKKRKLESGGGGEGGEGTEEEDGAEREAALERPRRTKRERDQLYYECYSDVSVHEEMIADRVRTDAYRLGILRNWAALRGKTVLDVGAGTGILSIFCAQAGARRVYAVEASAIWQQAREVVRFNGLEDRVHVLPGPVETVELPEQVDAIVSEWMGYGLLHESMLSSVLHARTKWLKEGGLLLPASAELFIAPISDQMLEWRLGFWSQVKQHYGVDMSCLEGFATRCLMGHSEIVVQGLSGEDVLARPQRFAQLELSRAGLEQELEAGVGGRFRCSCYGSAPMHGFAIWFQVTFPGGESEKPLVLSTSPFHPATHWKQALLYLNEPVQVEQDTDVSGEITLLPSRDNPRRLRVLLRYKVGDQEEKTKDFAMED
Sequence of EZH1 (Q92800 whole entry, species assumed): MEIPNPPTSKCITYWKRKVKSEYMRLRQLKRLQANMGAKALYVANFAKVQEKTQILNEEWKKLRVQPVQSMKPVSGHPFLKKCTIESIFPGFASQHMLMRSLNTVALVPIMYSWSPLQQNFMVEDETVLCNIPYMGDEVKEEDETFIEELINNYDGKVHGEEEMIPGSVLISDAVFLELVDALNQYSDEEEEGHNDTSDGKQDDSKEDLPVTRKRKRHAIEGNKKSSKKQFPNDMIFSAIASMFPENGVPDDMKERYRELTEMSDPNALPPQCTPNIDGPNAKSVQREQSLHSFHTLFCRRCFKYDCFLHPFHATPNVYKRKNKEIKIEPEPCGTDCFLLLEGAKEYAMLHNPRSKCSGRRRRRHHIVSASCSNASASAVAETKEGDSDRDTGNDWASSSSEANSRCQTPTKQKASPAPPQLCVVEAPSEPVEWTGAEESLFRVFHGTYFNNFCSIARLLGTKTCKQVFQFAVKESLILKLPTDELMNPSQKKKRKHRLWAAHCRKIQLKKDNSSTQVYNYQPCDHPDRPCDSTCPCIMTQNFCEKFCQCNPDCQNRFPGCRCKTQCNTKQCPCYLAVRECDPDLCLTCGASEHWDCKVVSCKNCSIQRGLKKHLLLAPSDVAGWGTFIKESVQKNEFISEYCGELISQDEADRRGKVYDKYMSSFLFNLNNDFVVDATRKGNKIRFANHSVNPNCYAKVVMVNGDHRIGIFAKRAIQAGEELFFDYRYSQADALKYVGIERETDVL
Sequence of EZH1 (O75530 whole entry partner, species assumed): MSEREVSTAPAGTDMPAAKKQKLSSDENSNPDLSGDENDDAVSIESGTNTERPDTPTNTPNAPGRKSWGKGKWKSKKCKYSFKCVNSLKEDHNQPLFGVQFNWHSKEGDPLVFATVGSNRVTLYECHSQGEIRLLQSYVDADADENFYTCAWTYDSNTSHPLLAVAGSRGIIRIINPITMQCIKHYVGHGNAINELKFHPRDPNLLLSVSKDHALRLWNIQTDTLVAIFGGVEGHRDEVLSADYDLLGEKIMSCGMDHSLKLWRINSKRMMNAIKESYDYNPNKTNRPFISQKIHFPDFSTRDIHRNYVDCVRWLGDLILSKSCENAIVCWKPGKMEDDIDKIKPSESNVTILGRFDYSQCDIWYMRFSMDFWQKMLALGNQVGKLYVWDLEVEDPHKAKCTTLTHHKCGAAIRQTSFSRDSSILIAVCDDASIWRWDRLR
Sequence of EZH1 (Q15022 whole entry partner, species assumed): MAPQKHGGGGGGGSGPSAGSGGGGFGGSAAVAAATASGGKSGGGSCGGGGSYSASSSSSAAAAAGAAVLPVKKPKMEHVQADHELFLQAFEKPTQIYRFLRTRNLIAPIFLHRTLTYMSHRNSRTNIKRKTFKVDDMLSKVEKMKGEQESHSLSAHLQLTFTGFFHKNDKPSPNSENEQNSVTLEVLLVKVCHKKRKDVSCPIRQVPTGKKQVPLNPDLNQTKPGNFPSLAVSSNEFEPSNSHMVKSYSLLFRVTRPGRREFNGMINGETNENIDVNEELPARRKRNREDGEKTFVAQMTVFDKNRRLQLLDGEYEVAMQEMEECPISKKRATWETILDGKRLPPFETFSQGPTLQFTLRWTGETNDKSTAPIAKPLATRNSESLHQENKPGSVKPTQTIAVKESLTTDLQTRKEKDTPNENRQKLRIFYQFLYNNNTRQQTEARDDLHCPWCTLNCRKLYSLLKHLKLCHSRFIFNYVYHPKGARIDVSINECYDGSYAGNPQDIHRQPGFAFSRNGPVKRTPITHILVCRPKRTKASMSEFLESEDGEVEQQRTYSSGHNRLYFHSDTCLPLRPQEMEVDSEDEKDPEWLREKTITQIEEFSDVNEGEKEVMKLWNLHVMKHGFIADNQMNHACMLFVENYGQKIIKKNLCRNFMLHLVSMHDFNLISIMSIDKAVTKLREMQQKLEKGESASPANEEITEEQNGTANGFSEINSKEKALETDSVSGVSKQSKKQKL
Sequence of SMYD2 (Q9NRG4 whole entry, species assumed): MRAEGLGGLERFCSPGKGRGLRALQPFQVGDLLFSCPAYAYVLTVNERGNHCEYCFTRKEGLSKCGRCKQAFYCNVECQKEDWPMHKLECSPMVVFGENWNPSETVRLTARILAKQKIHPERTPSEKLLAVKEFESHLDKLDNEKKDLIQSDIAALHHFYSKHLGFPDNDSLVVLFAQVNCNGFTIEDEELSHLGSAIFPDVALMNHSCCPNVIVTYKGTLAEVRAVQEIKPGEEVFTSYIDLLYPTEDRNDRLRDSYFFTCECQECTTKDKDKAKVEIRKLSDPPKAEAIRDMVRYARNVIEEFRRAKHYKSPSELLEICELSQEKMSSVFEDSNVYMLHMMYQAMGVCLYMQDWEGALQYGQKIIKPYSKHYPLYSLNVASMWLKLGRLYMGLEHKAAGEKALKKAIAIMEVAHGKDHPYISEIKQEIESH
Sequence of EZH2 (Q15910 whole entry, species assumed): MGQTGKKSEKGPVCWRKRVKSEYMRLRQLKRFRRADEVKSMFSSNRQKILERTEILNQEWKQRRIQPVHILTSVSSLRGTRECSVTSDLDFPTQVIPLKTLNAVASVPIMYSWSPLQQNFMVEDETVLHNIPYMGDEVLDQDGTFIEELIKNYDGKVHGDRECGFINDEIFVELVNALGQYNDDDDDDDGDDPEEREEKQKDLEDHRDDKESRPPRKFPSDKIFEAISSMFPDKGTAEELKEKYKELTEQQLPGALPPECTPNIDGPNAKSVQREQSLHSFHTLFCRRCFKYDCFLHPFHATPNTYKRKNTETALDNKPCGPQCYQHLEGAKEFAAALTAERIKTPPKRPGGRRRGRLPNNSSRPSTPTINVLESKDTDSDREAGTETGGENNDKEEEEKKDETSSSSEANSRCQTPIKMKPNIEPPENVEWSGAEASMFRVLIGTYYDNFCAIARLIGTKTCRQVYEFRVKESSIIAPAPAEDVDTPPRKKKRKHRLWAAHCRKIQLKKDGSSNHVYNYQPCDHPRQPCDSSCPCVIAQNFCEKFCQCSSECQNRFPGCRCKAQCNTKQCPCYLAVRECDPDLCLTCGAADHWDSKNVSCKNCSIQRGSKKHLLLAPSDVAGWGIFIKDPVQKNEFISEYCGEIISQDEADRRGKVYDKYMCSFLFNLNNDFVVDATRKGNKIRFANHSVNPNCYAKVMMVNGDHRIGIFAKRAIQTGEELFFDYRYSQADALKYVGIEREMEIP
Sequence of EZH2 (O75530 whole entry partner, species assumed): as the sequence (O75530 whole entry partner, species assumed) above
Sequence of EZH2 (Q15022 whole entry partner, species assumed): as the sequence (Q15022 whole entry partner, species assumed) above

| Molecule | IC50 [1] [µM] | IC50 [2] [µM] | other results |
| --- | --- | --- | --- |
| Ac-GVARI-NH2 [PTD3] | > 1000 | 640 ± 70 | fold decrease in WHSC1 potency relative to PTD2 [2, 10]: 30 fold |
| CCCC[C@H](NC(=O)[C@@H](NC(=O)CNC(C)=O)C(C)C)C(=O)N[C@@H](CCCNC(=N)N)C(=O)N[C@H](C(N)=O)[C@@H](C)CC [PTD2] |  |  | IC50 [3]: > 200 µM; IC50 [4]: > 200 µM; IC50 [5]: > 200 µM; IC50 [6]: > 200 µM; SPR binding in the absence of cofactor ([7]; no cofactor, 2-fold, 10-point dilution, top concentration 100 μM): no binding is observed; IC50 [8]: > 200 µM; IC50 [9]: > 200 µM |
| CCCC[C@H](NC(=O)[C@@H](NC(=O)CNC(=O)CNC(=O)[C@H](CCCNC(=N)N)NC(C)=O)C(C)C)C(N)=O [PTD5] (Ac-RGGV[Nle]-NH2) | 110 ± 10 | 190 ± 20 |  |
| CCCC[C@H](NC(C)=O)C(=O)N[C@@H](CCCNC(=N)N)C(=O)N[C@H](C(=O)N[C@@H](CO)C(=O)NCC(N)=O)[C@@H](C)CC [PTD7] (Ac-[Nle]RISG-NH2) | > 1000 | 200 ± 40 |  |
| CCCC[C@H](NC(=O)[C@@H](NC(C)=O)C(C)C)C(=O)N[C@@H](CCCNC(=N)N)C(=O)N[C@H](C(=O)N[C@@H](CO)C(N)=O)[C@@H](C)CC [PTD6] (Ac-V[Nle]RIS-NH2) | 3 ± 0.3 | 110 ± 20 |  |
| CCCC[C@H](NC(=O)[C@@H](NC(=O)CNC(=O)CNC(=O)[C@H](CCCNC(=N)N)NC(=O)[C@H](CCCNC(=N)N)NC(=O)[C@H](C)NC(=O)[C@H](CC(C)C)NC(=O)[C@H](CCCNC(=N)N)NC(C)=O)C(C)C)C(=O)N[C@@H](CCCNC(=N)N)C(=O)N[C@H](C(=O)N[C@@H](CO)C(=O)NCC(=O)N[C@@H](CC(C)C)C(=O)N[C@H](C(N)=O)[C@@H](C)CC)[C@@H](C)CC [PTD1] (Ac-RLARRGGV[Nle]RISGLI-NH2) | 1.1 ± 0.1 | 0.088 ± 0.005 | fold more potent towards WHSC1 than the 5 residue Nle peptide (PTD2) [2, 10]: 250 fold; SPR behaviour on the sensor surface ([7]; at concentrations greater than 1 μM, affinity to WHSC1 could not be determined): non-specific matrix interactions |
| CCCC[C@H](NC(=O)[C@@H](NC(=O)CNC(=O)CNC(C)=O)C(C)C)C(=O)N[C@@H](CCCNC(=N)N)C(N)=O [PTD4] (Ac-GGV[Nle]R-NH2) | 320 ± 30 | 180 ± 20 |  |
| CCCC[C@H](NC(=O)[C@@H](NC(=O)CNC(C)=O)C(C)C)C(=O)N[C@@H](CCCCN)C(=O)N1CCC[C@H]1C(N)=O [PTD9] (Ac-GV[Nle]KP-NH2) | 370 ± 40 | 130 ± 20 | fold decrease in WHSC1 potency relative to PTD2 [2, 10]: 6 fold |
| CCCC[C@H](NC(=O)[C@@H](NC(=O)CNC(=O)CNC(=O)[C@@H](NC(=O)[C@H](C)NC(=O)[C@@H]1CCCN1C(=O)[C@H](C)NC(=O)[C@H](CO)NC(C)=O)[C@@H](C)O)C(C)C)C(=O)N[C@@H](CCCCN)C(=O)N1CCC[C@H]1C(=O)N[C@@H](Cc1c[nH]cn1)C(=O)N[C@@H](CCCNC(=N)N)C(=O)N[C@@H](Cc1ccc(O)cc1)C(=O)N[C@@H](CCCNC(=N)N)C(N)=O [PTD8] | 190 ± 30 | 13 ± 1 | fold loss in WHSC1 potency compared with PTD1 [2, 10]: 150 fold |
